Results taken from patent publication US9222118B2 (priority 2008, dated 2015).
Like-named read-outs stand apart in the source and are kept apart here.

What was measured:
[1] = test system: VSVΔG*-Ebolavirus GP; type: cell-based
[2] = test system: EbolaΔVP30-GFP virus; assay: microbe, parasite or virus in culture; type: cell-based, Zaire ebolavirus; details: for % GFP inhibition: 5 µM; for IC50: read-out: IC50; for inhibition at 5 µM: Zaire ebolavirus, read-out: % GFP inhibition
[3] = test system: VeroVP30 cells
[4] = test system: Ebolavirus minigenome; type: cell-based
[5] = test system: EbolaΔVP30-GFP; type: cell-based, Zaire ebolavirus

Compound	% GFP inhibition [2]	% cell viability [3]	further results
1,2alpha-Epoxy-7-Deacetoxy-7-Oxo-Deoxyhydrogedunin	75%	–	% infectivity of VSVΔG*-Ebolavirus GP [1]: 6.5±1.6%; IC50 [2]: 7.12 µM; CC50 [3]: > 10 µM
1-Deacetoxy-1-oxo-3,7-dideacetylkhivorin	19%	94%	–
3beta-Hydroxydeoxydesacetoxy-7-oxogedunin	75%	81%	–
6-Hydroxyangolensic acid methyl ester	15%	94%	–
7-Deacetoxy-3-deacetyl-7-oxokhivorin	92%	80%	IC50 [2]: 0.56 µM; CC50 [3]: > 10 µM
7-Deacetyldihydrogedunin	−30%	85%	–
11alpha-Acetoxykhivorin	−47%	93%	–
17-Allylamino-17-demethoxygeldanamycin [17-AAG]	–	–	% luc activity from the Ebolavirus minigenome [4]: 7.9%±1.5%; Infectivities of VSVΔG*-Ebolavirus GP standardized by the infectivities of VSVΔG*-VSV G ([1]; 10 μM): 110%; reduction of EbolaΔVP30 virus growth [5]: 92%
CC1(C)C(=O)[C@@H]2O[C@@H]2[C@@]2(C)C1C[C@@H](O)[C@]1(C)C2CC[C@@]2(C)[C@H](c3ccoc3)OC(=O)C3OC321 (stereo partly drawn) [1,2alpha-Epoxydeacetoxydihydrogedunin]	75%	77%	–
CC1(C)C2CC(=O)[C@]3(C)C(CC[C@@]4(C)[C@H](c5ccoc5)OC(=O)C5OC543)[C@@]2(C)[C@@H](O)C[C@H]1O (stereo partly shown) [1,3-Dideacetyl-7-deacetoxy-7-oxokhivorin]	100%	78%	IC50 [2]: < 0.15 µM; CC50 [3]: > 10 µM
CC(=O)O[C@@H]1C[C@H]2C(C)(C)[C@H](O)C[C@H](O)[C@]2(C)[C@H]2CC[C@@]3(C)[C@H](c4ccoc4)OC(=O)[C@H]4O[C@]43[C@@]21C [1,3-Dideacetylkhivorin]	82%	78%	–
CC1(C)C2CC(=O)[C@]3(C)C(CC[C@@]4(C)[C@H](c5ccoc5)OC(=O)[C@H]5O[C@]543)[C@@]2(C)C(=O)C[C@H]1O (stereo partly shown) [1,7-Dideacetoxy-1,7-dioxo-3-deacetylkhivorin]	14%	87%	–
CC(=O)O[C@@H]1CC(=O)[C@@]2(C)C(CC(=O)[C@]3(C)C2CC[C@@]2(C)[C@H](c4ccoc4)OC(=O)C4OC423)C1(C)C (stereo partly shown) [1,7-Dideacetoxy-1,7-dioxokhivorin]	39%	88%	–
CC(=O)O[C@@H]1C[C@H]2C(C)(C)CCC(=O)[C@]2(C)[C@H]2CC[C@@]3(C)[C@H](c4ccoc4)OC(=O)[C@H]4O[C@]43[C@@]21C [2,3-Dihydroisogedunin]	−17%	91%	–
CC(=O)O[C@H]1C[C@@H](O)C(C)(C)[C@@H]2C[C@@H](OC(C)=O)[C@]3(C)[C@H](CC[C@@]4(C)[C@@H](c5ccoc5)OC(=O)[C@H]5O[C@@]534)[C@@]12C [3-Deacetylkhivorin]	6%	102%	–
CC(=O)O[C@@H]1CC2C(C)(C)[C@H](O)CC[C@]2(C)C2CC[C@@]3(C)[C@H](c4ccoc4)OC(=O)C4OC43[C@@]21C (stereo partly drawn) [3alpha-Hydroxydeoxodihydrogedunin]	85%	94%	–
CC(=O)O[C@H]1CC[C@]2(C)[C@H]3CC[C@@]4(C)[C@H](c5ccoc5)OC(=O)[C@H]5O[C@]54[C@]3(C)[C@H](OC(C)=O)C[C@H]2C1(C)C [3beta-Acetoxydeoxodihydrogedunin]	90%	80%	–
CC(=O)OC1CC2C(C)(C)[C@@H](O)CC[C@]2(C)C2CC[C@]3(C)[C@H](c4ccoc4)OC(=O)[C@H]4O[C@]43[C@]12C (stereo partly drawn) [3beta-Hydroxydeoxodihydrogedunin]	75%	79%	–
C=C1C2CC[C@@]3(C)[C@H](c4ccoc4)OC(=O)C[C@]13O[C@H]1CC(=O)C(C)(C)[C@H](C(OC(C)=O)C(=O)OC)[C@@]21C (stereo partly shown) [6-Acetoxyangolensic acid methyl ester]	32%	88%	–
CC(=O)O[C@H]1C[C@@H](OC(C)=O)C(C)(C)C2CC(=O)[C@]3(C)C(CC[C@@]4(C)[C@H](c5ccoc5)OC(=O)[C@H]5O[C@]543)[C@]21C (stereo partly shown) [7-Deacetoxy-7-oxokhivorin]	26%	90%	–

Compound	% GFP inhibition [2]	% cell viability [3]	further results
CC(=O)O[C@H]1C[C@@H](OC(C)=O)C(C)(C)C2C[C@@H](O)[C@]3(C)C(CC[C@@]4(C)[C@H](c5ccoc5)OC(=O)[C@H]5O[C@]543)[C@]21C (stereo partly shown) [7-Deacetylkhivorin]	13%	91%	–
CC1(C)C(=O)C=C[C@]2(C)[C@H]3CC[C@@]4(C)[C@H](c5ccoc5)OC(=O)[C@H]5O[C@]54[C@]3(C)C=C[C@@H]12 [7-Desacetoxy-6,7-dehydrogedunin]	2%	70%	–
CC(=O)OC1CC(OC(C)=O)C2(C)C(CC(OC(C)=O)C3(C)C2CCC2(C)C(c4ccoc4)OC(=O)C4OC423)C1(C)C (stereo not shown) [7-Epikhivorin]	4%	79%	–
NS(=O)(=O)c1nn2cc(-c3ccccc3)nc2s1 [AEG 3482, 6-Phenylimidazo[2,1-b]-1,3,4-thiadiazole-2-sulfonamide]	–	–	% luc activity from the Ebolavirus minigenome [4]: 34.0%±8.0%; Infectivities of VSVΔG*-Ebolavirus GP standardized by the infectivities of VSVΔG*-VSV G ([1]; 10 μM): 135%; reduction of EbolaΔVP30 virus growth [5]: 5%
C=C1[C@@H]([C@@]2(C)C=CC(=O)C(C)(C)[C@@H]2CC(=O)OC)CC[C@@]2(C)[C@H](c3ccoc3)OC(=O)[C@H]3O[C@]132 [Andirobin]	–	–	inhibition at 5 µM [2]: -12%; % cell viability ([3]; green monkey): 91%
C=C1[C@@H]2CC[C@@]3(C)[C@H](c4ccoc4)OC(=O)C[C@]13O[C@H]1CC(=O)C(C)(C)[C@H](CC(=O)OC)[C@]12C [Angolensic acid, methyl ester]	4%	85%	–
CCc1cc(-c2n[nH]c(C)c2-c2ccc3c(c2)OCCO3)c(O)cc1O [CCT 018159, 4-[4-(2,3-Dihydro-1,4-benzodioxin-6-yl)-5-methyl-1H-pyrazol-3-yl]-6-ethyl-1,3-benzenediol]	–	–	% luc activity from the Ebolavirus minigenome [4]: 8.8%±2.6%; effect on VSVΔG*-Ebolavirus GP infectivity [1]: slightly reduced; Infectivities of VSVΔG*-Ebolavirus GP standardized by the infectivities of VSVΔG*-VSV G ([1]; 10 μM): 71%; reduction in Ebolavirus GP-dependent virus infection ([1]; 10 μM): ~30%; reduction of EbolaΔVP30 virus growth [5]: 97%
CC1(C)C=CC(=O)[C@@]2(C)C1CC(=O)[C@]1(C)C2CC[C@@]2(C)[C@H](c3ccoc3)OC(=O)C3OC321 (stereo partly shown) [Deacetoxy-7-oxisogedunin]	41%	84%	–
CC1(C)C(=O)C=C[C@]2(C)[C@H]3CC[C@@]4(C)[C@H](c5ccoc5)OC(=O)[C@H]5O[C@]54[C@]3(C)C(=O)C[C@@H]12 [Deacetoxy-7-oxogedunin]	80%	79%	–
CC1(C)C(=O)C=C[C@]2(C)[C@H]3CC[C@@]4(C)[C@H](c5ccoc5)OC(=O)[C@H]5O[C@]54[C@]3(C)[C@H](O)C[C@@H]12 [Deacetylgedunin]	–	–	anti-Ebolavirus activity [2]: did not show any anti-Ebolavirus activity; inhibition at 5 µM [2]: 45%; % cell viability ([3]; green monkey): 86%
CC(=O)O[C@@H]1C[C@H]2C(C)(C)C(=O)CC[C@]2(C)[C@H]2CC[C@@]3(C)[C@H](c4ccoc4)OC(=O)[C@H]4O[C@]43[C@@]21C [Dihydrogedunin]	–	–	inhibition at 5 µM [2]: 96%; % cell viability ([3]; green monkey): 79%
CCC(C)C(=O)O[C@@H]1C[C@@]2(C)[C@H](c3ccoc3)OC(=O)CC23OC2(C)OC34[C@H](OC(=O)C(C)C)[C@@]3(O)[C@@H](OC(=O)C5(C)OC5C)[C@@]5(C)C[C@]3(O)[C@@](C)([C@H]5CC(=O)OC)C14O2 (stereo partly shown) [Entandrophragmin]	−12%	83%	–
CC(=O)O[C@@H]1CC2C(C)(C)C(=O)C3OC3[C@]2(C)C2CC[C@@]3(C)[C@H](c4ccoc4)OC(=O)C4OC43[C@@]21C (stereo partly shown) [Epoxygedunin]	103%	71%	% luc activity from the Ebolavirus minigenome [4]: 1.0%±0.1%; effect on protein expression from the Ebolavirus minigenome [4]: inhibit protein expression from the Ebolavirus minigenome; IC50 [2]: < 0.15 µM; inhibition of EbolaΔVP30-GFP growth [5]: completely inhibited; CC50 [3]: > 10 µM
CC(=O)O[C@@H]1CC2C(C)(C)[C@H](O)C=C[C@]2(C)C2CC[C@@]3(C)[C@H](c4ccoc4)OC(=O)C4OC43[C@@]21C (stereo partly shown) [Gedunol]	79%	82%	–
CCC(C)C(OC(C)=O)C(=O)O[C@H]1[C@H](O)[C@@H]2[C@@]3(C)C=CC(=O)C(C)(C)[C@@H]3C[C@@H](OC(=O)C(O)C(C)C)[C@@]2(C)[C@@]23O[C@@H]2C[C@@H](c2ccoc2)[C@]13C (stereo partly shown) [Heudelottin C]	104%	5%	–
CC(=O)O[C@@H]1CC2C(C)(C)C=CC(=O)[C@]2(C)C2CC[C@@]3(C)[C@H](c4ccoc4)OC(=O)C4OC43[C@@]21C (stereo partly shown) [Isogedunin]	35%	86%	–
CC(=O)O[C@H]1C[C@@H](OC(C)=O)C(C)(C)[C@@H]2C[C@@H](OC(C)=O)[C@]3(C)[C@H](CC[C@@]4(C)[C@H](c5ccoc5)OC(=O)[C@H]5O[C@@]534)[C@@]12C [Khivorin]	–	–	inhibition at 5 µM [2]: 0%; % cell viability ([3]; green monkey): 82%
C=C1[C@@H]([C@@]2(C)[C@@H](OC(C)=O)CC(=O)O[C@](C)(COC(C)=O)[C@@H]2C(=O)OC)[C@@H](OC=O)[C@H](OC(=O)[C@H](O)[C@H](C)CC)[C@@]2(C)[C@H](c3ccoc3)CC(=O)[C@]12O [Prieurianin]	–	–	inhibition at 5 µM [2]: -17%; % cell viability ([3]; green monkey): 89%
CCC(C)C(=O)O[C@@H]1C[C@@]2(C)[C@H](c3ccoc3)OC(=O)CC23OC2(C)O[C@]14[C@]1(C)[C@@H](CC(=O)OC)C5(C)CC1(O)[C@](O)(C5OC(=O)C1(C)OC1C)[C@@H](OC(C)=O)[C@]34O2 (stereo partly shown) [Utilin]	–	–	inhibition at 5 µM [2]: 4%; % cell viability ([3]; green monkey): 75%
Heudelottin E	−49%	93%	–
